# Test results reported in article PMC8764033, “Single-molecule analysis of specificity and multivalency in binding of short linear substrate motifs to the APC/C” (Nature Communications, 2022).
# Where “and” joins values, the source holds several entries; their conditions need not be identical. Equal values may be shown once. Where a SMILES comes first, the peptide text is derived from it.
# Biological target: T1, APC/C^Cdc20 (Saccharomyces cerevisiae, UniProt P26309+P53068)
# T1 construct: APC/C was purified from yeast cells; made in house; host or cells: APC/C from S. cerevisiae W303 strain NHY13 (Cdc16-TAP, Apc1-GFP, cdh1 deleted); Cdc20 from Sf9 (baculovirus)
# Assay: SMOR assay, yeast APC/C^Cdc20
# Type: binding
# Details: for mean dwell time: representative of two independent experiments, ± SE, ligand ≤1 nM, buffer C + BSA
# Description: Yeast strains were derivatives of W303 and are listed in Supplementary Table 2. For APC/C purification, we used a strain carrying Cdc16-TAP and lacking Cdh1 (DOM1126); in most experiments, the strain also carried Apc1-GFP (NHY13). Yeast were grown in YPD media to OD600 = 0.8, collected and flash-frozen. Cells were lysed by bead beating in lysis buffer A (50 mM HEPES pH 7.5, 150 mM KCl, 10% glycerol, 0.2% Triton X-100, 63 µM B-glycerophosphate, 48 µM sodium fluoride, 1 µg ml^−1 pepstatin A, 1 µg ml^−1 leupeptin, 1 µg ml^−1 aprotinin, 1 mM PMSF, 1 mM DTT, 0.5 mM EDTA) and APC/C was purified using magnetic IgG beads. The beads were washed using wash buffer A (20 mM HEPES pH 7.5, 150 mM KCl, 10% Glycerol, 0.05% Triton X-100). After incubation with purified Cdh1 or Cdc20, the APC/C was cleaved off the beads with TEV protease in wash buffer A with 0.05% Tween-20 (for single-molecule studies) or 0.05% Triton X-100 (for ensemble assays such as ubiquitylation) and used immediately.
# For all SMOR experiments, 24 × 50 mm high precision glass coverslips (Bioscience Tools) and drilled microscope slides were passivated with a combination of PEG and PEG-biotin (coverslips) or PEG only (slides) following a previously published protocol for SiMPull[31]. Reaction chambers (~20 µl) were created using double-sided tape and epoxy. Protein was immobilized on the surface with 0.2 mg ml^−1 NeutrAvidin in buffer C (20 mM HEPES pH 7.5, 150 mM KCl, 10% glycerol, 0.05% Tween-20, 1 mM DTT). Excess NeutrAvidin was washed away and incubated with either biotin-conjugated mouse monoclonal anti-Strep-Tag II antibody (LSBio, Cat. No. LS-C203632-100) or biotin-conjugated rabbit polyclonal anti-GFP antibody (Rockland, Cat. No. 600-406-215) diluted in buffer C + BSA (0.1 mg ml^−1; Molecular Biology Grade Bovine Serum Albumin). Activator WD40 and activated APC/C (typically 50 µl containing about 65 ng APC/C, of which only a small fraction is immobilized on the glass) were immobilized using anti-Strep-Tag II, while APC/C alone was immobilized with anti-GFP. SMOR results were similar when performed in the buffer (wash buffer B) used in polarization anisotropy.
# To capture dynamic protein–protein interactions, dye-labeled substrate diluted in buffer C + BSA was added to the chamber containing immobilized proteins. Interactions were imaged by TIRF microscopy as described below. For optimal signal-to-noise ratio, peptide concentration was no greater than 1 nM. Protein substrates included Hsl1 aa 667–872 and a C-terminal HaloTag followed by a TAP tag, and were produced by translation in rabbit reticulocyte lysates using TnT Quick Coupled Transcription/Translation System (Promega) (see Supplementary Table 5 for plasmids). Protein was purified with magnetic IgG beads and labeled on the bead with JF549 or JF646 dye so that unbound dye could be washed away. Purified dye-labeled protein was then cleaved from the beads using TEV protease. Before adding substrate to the reaction chamber, oxygen scavenging reagents were added (10 nM protocatechuate-3,4-dioxygenase, 2.5 mM protocatechuic acid, and 1 mM Trolox)[41]. A detailed description of the SMOR analysis pipeline is found in Supplementary Note 1.
# Microscopy was performed with a Nikon Eclipse TE2000-E with Perfect Focus with a 100 × 1.49na oil, Apo TIRF DIC N2, 0.13-0.2, WD0.12 objective. Movies were recorded using the Andor iXon DU-897E-CSO. For visualizing GFP-tagged protein, a 491 nm laser was used with an ET525/50 (Chroma) filter for emission. For visualizing JF549-labeled substrate, a 561 nm laser was used with an ET595/50 (Chroma) filter for emission. For visualizing all Cy5-labeled peptides and JF646-labeled substrates, a 640 nm laser was used with an ET685/70 filter (Chroma) for emission. Initially, for each substrate tested, we acquired movies at multiple intervals to deduce the optimal interval to decrease bleaching. µManager version 2.0 was used to control the microscope and record time-lapse movies.
# [1] = Supplementary Table 1, replicate 1 (movie listed first)
# [2] = Supplementary Table 1, replicate 2 (movie listed second)
# [3] = Supplementary Table 1, replicate 1
# [4] = Supplementary Table 1, replicate 2
Compound,Dwell Time [1],Dwell Time [2],mean dwell time,binding (in words),Dwell Time (in words) [3],Dwell Time (in words) [4],fold higher affinity for APC/C^Cdc20 (vs APC/C^Cdh1)
CC(C)C[C@H](NC(=O)[C@H](C)NC(=O)[C@H](CCCNC(=N)N)NC(=O)[C@H](CCCNC(=N)N)NC(=O)[C@@H]1CCCN1C(=O)[C@H](CCCCN)NC(=O)[C@H](CO)NC(=O)[C@H](CC(=O)O)NC(=O)[C@@H](N)CCC(N)=O)C(=O)N[C@H](C(=O)N[C@@H](CC(=O)O)C(=O)N[C@H](C(=O)N1CCC[C@H]1C(=O)N[C@H](C(=O)N[C@@H](CC(N)=O)C(=O)N[C@@H](CC(N)=O)C(=O)N[C@@H](CC(N)=O)C(=O)N1CCC[C@H]1C(=O)N[C@@H](CC(C)C)C(=O)N[C@@H](CO)C(=O)N[C@@H](CCC(N)=O)C(=O)N[C@@H](CCCCN)C(=O)O)C(C)C)C(C)C)[C@@H](C)O [Clb5 D box] (H-QDSKPRRALTDVPVNNNPLSQK-OH; N-terminus and C-terminus assumed),0.179 ± 0.008 s,0.207 ± 0.008 s,0.207 ± 0.008 s and 0.207 s,–,–,–,–
CC[C@H](C)[C@H](NC(=O)[C@H](CC(=O)O)NC(=O)[C@H](CO)NC(=O)[C@H](C)NC(=O)[C@H](C)NC(=O)[C@H](C)NC(=O)[C@H](C)NC(=O)[C@H](CCCCN)NC(=O)[C@@H]1CCCN1C(=O)[C@H](CCCCN)NC(=O)[C@H](CCC(N)=O)NC(=O)[C@@H](N)CCC(=O)O)C(=O)N[C@H](C(=O)N[C@@H](C)C(=O)N[C@@H](CO)C(=O)N[C@@H](Cc1ccccc1)C(=O)N[C@@H](CC(N)=O)C(=O)N[C@@H](CCCCN)C(=O)N[C@@H](CCSC)C(=O)N[C@@H](CC(N)=O)C(=O)N[C@@H](CCCCN)C(=O)O)[C@@H](C)O [Hsl1 D box mutant] (H-EQKPKAAAASDITASFNKMNK-OH; N-terminus and C-terminus assumed),–,–,–,No binding,no binding,no binding,–
CC[C@H](C)[C@H](NC(=O)[C@H](Cc1ccccc1)NC(=O)[C@H](CO)NC(=O)[C@H](CCCCN)NC(=O)[C@H](CO)NC(=O)[C@H](CCCNC(=N)N)NC(=O)[C@H](CC(N)=O)NC(=O)[C@H](CC(N)=O)NC(=O)[C@H](CC(=O)O)NC(=O)[C@H](CCCCN)NC(=O)[C@H](C)NC(=O)[C@H](C)NC(=O)[C@H](CC(C)C)NC(=O)[C@@H]1CCCN1C(=O)[C@H](CC(C)C)NC(=O)[C@H](CCCNC(=N)N)NC(=O)CNC(=O)[C@H](CCC(N)=O)NC(=O)[C@H](CCC(N)=O)NC(=O)[C@H](CCC(N)=O)NC(=O)[C@H](C)N)C(=O)N[C@@H](CCCCN)C(=O)O [ySecurin D box] (H-AQQQGRLPLAAKDNNRSKSFIK-OH; N-terminus and C-terminus assumed),1.859 ± 0.041 s,1.870 ± 0.035 s,1.87 ± 0.04 s and 1.87 s,–,–,–,15 fold
"LIYVDKENGEPGTR-K(Cy5) [hSecurin KEN, Cy5-labeled KEN box peptide of human securin/Pttg1]",–,–,–,No binding,no binding,no binding,–
"LPKATRKALGTVNRATEKSVK-K(Cy5) [AurKB D box, Cy5-labeled D box peptide of Aurora B kinase]",–,–,–,No binding,no binding,no binding,–
"SKAAQFMLYEETAEERNI-K(Cy5) [Acm1 ABBA, Cy5-labeled Cdh1-specific ABBA motif from pseudosubstrate yeast protein Acm1]",–,–,–,No binding,no binding,no binding,–
